Results from patent US20050239809A1, “Methods for treating and preventing hypertension and hypertension-related disorders” (priority 2004, published 2005).

Test system: endothelium-denuded aorta from DOCA-salt and sham rats
Assay: Spontaneous tone of endothelium-denuded thoracic aorta in isolated tissue baths (isometric force)
Design: species or system rat
Method: Endothelial cell-denuded thoracic aorta, removed from pentobarbital (60 mg kg^-1, i.p.) anesthetized rats, were pair-mounted (Sham/DOCA) in isolated tissue baths for measurement of isometric force. (Florian and Watts (1999) Am. J. Physiol., 276: […]-[…]) Tissues were challenged with a maximal concentration of a adrenergic agonist, phenylephrine (PE) (10^-5 mol/L). IC87114 (ICOS Corporation, Bothell, Wash.) concentration response curves were generated by adding increasing concentrations of IC87114 (1×10^-9-3×10^-4 mol/L) with measurements of spontaneous tone taken every 30 minutes. Aortic strips from DOCA-salt rats were also exposed to 20 μmol/L IC87114 or vehicle for 1 hour and measurements of spontaneous tone were recorded. […] Tissues were under passive tension for optimal force production. […] The effect of IC87114 was reversible in all experiments, as spontaneous tone was restored upon washing out of IC87114. In further experiments using an IC87114 concentration equivalent to that used in previous experiments with LY294002 (20 μmol/L) (Example 1), IC87114 (20 μmol/L) or vehicle (0.1% DMSO) was incubated with aortic strips from DOCA-salt rats for 1 hour in isolated tissue baths.

`Cc1ccccc1-n1c(Cn2cnc3c(N)ncnc32)nc2cccc(C)c2c1=O` [IC87114, 2-(6-aminopurin-9-ylmethyl)-5-methyl-3-o-tolyl-3H-quinazolin-4-one] was tested, and the “effect on spontaneous tone in aorta from DOCA-salt rats, single concentration” value (20 μmol/L, 1 hour incubation, compared to vehicle (0.1% DMSO), P<0.05) was “significantly inhibits spontaneous tone development”, the “effect of increasing concentrations on spontaneous tone in aorta from DOCA-salt rats” value (10^−9 to 3×10^−4 mol/L, absence of agonist, endothelium-denuded aortic strips) was “reduced spontaneous tone in a concentration-dependent manner” and the “reversibility of effect on spontaneous tone upon washing out” value (aorta from DOCA-salt rats) was “reversible”.
